For one assay, the target named is T1, Aβ42 (Homo sapiens, UniProt P05067).
T1 construct: Recombinant Aβ42, Ultrapure, was purchased from rPeptide, Bogart, Ga., USA; purchased rPeptide, Bogart, Ga., USA
The assay is described as follows: Thioflavin T (ThT) assay for Aβ fibrils. The format is biochemical. The settings on record: 48 h incubation of Aβ42; molar ratios 1:1, 1:2, 1:4 and 1:10 (inhibitor:Aβ42). On the procedure: This method was the same as that published previously. Briefly, 60 μl samples of solutions containing Aβ42 (25 μM), ThT (15 μM) and between 0 and 125 μM RI-OR2 or RI-OR2-TAT, in 10 mM phosphate buffered saline (PBS), pH 7.4, were incubated in sealed, black, clear-bottomed 384-well plates (Corning). ThT fluorescence was monitored every 10 mins (λex=442 nm, λem=483 nm) for 48 h at 30° C. in a Biotek Synergy 2 plate reader.

The next assay addresses T2, Aβ42 fibrils (Homo sapiens, UniProt P05067).
T2 construct: purchased rPeptide, Bogart, Ga., USA
The assay is described as follows: Surface plasmon resonance binding to immobilized Aβ42 fibrils. The source says:
SPR (Surface Plasmon Resonance) is a technique that can be used to measure the affinity of a substance for a substrate. The substrate (in this case Aβ fibrils) is bound to a solid surface and excited using a laser light source. The compound to be tested (e.g. PINPs) is allowed to flow over the bound substrate in suspension/solution and the emission spectra of the substrate will change if the compound binds. A second solution, without the test compound, can then added to elute any bound compound and the emission spectra may be observed to note loss of bound compound from the substrate. For a specific example regarding peptide binding to Aβ see reference (30).
In the examples presented here, The substance is introduced at a flow rate of 30 uL/min for 5 minute over the immobilized substrate. There is a spike in the signal which is due to the introduction of solvent without PINPs to show removal of the peptide bound to the Aβ fibrils. There are two plots related to addition of peptide at two different concentrations, 1 and 3 μM, plus a computer generated fitted curve for each one.
These experiments were conducted using a Sensi Q semi-automatic SPR machine (ICx Nomadics). This apparatus has two parallel flow cells; one was used to immobilize Aβ42 fibrils while the other was used as “reference” (empty surface). A COOH5 sensor chip (ICx Nomadics) was employed for this purpose and the peptide was immobilized by amine coupling chemistry. Briefly, after surface activation, the peptide preparation was diluted to 10 μM in acetate buffer (pH 4.0) and then injected for 5 min at a flow rate of 30 μL/min. Any remaining activated groups were blocked with ethanolamine (pH 8.0). The final immobilization level was ˜5,000 resonance units (1 RU=1 pg of protein/mm^2). The empty “reference” surface was prepared in parallel using the same immobilization procedure, but without addition of the peptide. Sensorgrams were then obtained via injection of three different concentrations of RI-OR2-TAT (1, 3 and 6 μM), as well as the vehicle (PBS with 0.005% Tween 20), over the immobilized ligand or control surface, in parallel.
These experiments were conducted using a Sensi Q semi-automatic SPR machine (ICx Nomadics). This apparatus has two parallel flow cells; one was used to immobilize Aβ(1-42) fibrils (see Aβ peptides) while the other was used as “reference” (empty surface). A COOH5 sensor chip (ICx Nomadics) was employed for this purpose and the peptide was immobilized by amine coupling chemistry. Briefly, after surface activation, the peptide preparations was diluted to 10 μM in acetate buffer (pH 4.0) and then injected for 5 min at a flow rate of 30 μL/min. Any remaining activated groups were blocked with ethanolamine (pH 8.0). The final immobilization level was 5000 resonance units (1 RU=1 pg of protein/mm^2). The empty “reference” surface was prepared in parallel using the same immobilization procedure, but without addition of the peptide. Sensorgrams were then obtained via injection of two different concentrations of RI-OR2 TAT/peptide liposome (1 and 3 μM), as well as the vehicle (PBS with 0.005% Tween 20), over the immobilized ligand or control surface, in parallel, at the same time.

Like-named read-outs stand apart in the source and are kept apart here. Non-standard residues stand in square brackets, D forms with d. Residues, ends and D or L forms follow the SMILES beside them.

The text below walks through data of patent US9579358B2, “Compositions for binding to amyloid proteins” (LANCASTER UNIVERSITY BUSINESS ENTERPRISES LIMITED, priority 2011, dated 2017).

T2 sequence (P05067 672-713 limits assumed): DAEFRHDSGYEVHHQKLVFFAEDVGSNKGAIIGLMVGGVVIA
T1 sequence (P05067 672-713 limits assumed): as above

On to `CC(=O)N[C@H](CCCNC(=N)N)C(=O)NCC(=O)N[C@H](Cc1ccccc1)C(=O)N[C@H](Cc1ccccc1)C(=O)N[C@@H](C(=O)N[C@H](CC(C)C)C(=O)N[C@H](CCCCN)C(=O)NCC(=O)N[C@H](CCCNC(=N)N)C(=O)N[C@H](CCCNC(=N)N)C(=O)N[C@H](CCCNC(=N)N)C(=O)N[C@H](CCCNC(=N)N)C(=O)N[C@H](CCC(N)=O)C(=O)N[C@H](CCCNC(=N)N)C(=O)N[C@H](CCCNC(=N)N)C(=O)N[C@H](CCCCN)C(=O)N[C@H](CCCCN)C(=O)N[C@H](CCCNC(=N)N)C(=O)NCC(=O)N[C@H](Cc1ccc(O)cc1)C(N)=O)C(C)C` [RI-OR2-TAT, Ac-rGffvlkGrrrrqrrkkrGy-NH2] (Ac-[dR]G[dF][dF][dV][dL][dK]G[dR][dR][dR][dR][dQ][dR][dR][dK][dK][dR]G[dY]-NH2), for which the ThT fluorescence entry at Aβ42 is reported as “lower fluorescence”. Further, on Aβ42 fibrils, the “increase in affinity of binding to Aβ fibrils compared to RI-OR2” value was “approximately 1000 fold”. Further, the dissociation rate constant (koff) at Aβ42 fibrils (Example 2, 1, 3 and 6 μM) was found to be 0.00037 ± 1.5e-08 s⁻¹. In addition, the kon at Aβ42 fibrils (Example 2, 1, 3 and 6 μM) amounted to 3680 ± 615 M⁻¹ s⁻¹. Moreover, the Kd on Aβ42 fibrils (Example 2, Langmuir 1:1 interaction model, read-out: calculated apparent affinity value (Kd)) was 58 to 125 nM; at Aβ42 fibrils (Example 7, 1 and 3 μM, read-out: Kd, binding to Aβ fibrils) it was 15 to 75 nM; at Aβ42 fibrils (read-out: Kd, binding to Aβ fibrils) it was 41 to 75 nM. In addition, the “binding affinity for Aβ42 fibrils relative to RI-OR2” value at Aβ42 fibrils (Example 2, versus Kd=9.5 μM) was roughly 100 fold. Besides, on Aβ42 fibrils (Example 7), the “binding affinity relative to peptide without TAT” value is “approximately 1000 times”.
